Measured values from patent US10450295B2, “Method of using an indolinone molecule and derivatives for inhibiting liver fibrosis and hepatitis” (Acclaim BioMed USA LLC, priority 2013, dated 2019).
“Also recorded” adds a separate entry of the source.

Key:
human HSC's (LX-2) = test: HSC morphology under the microscope; type: cell-based
Method: In the control cultures, the HSCs appeared morphologically to be like fibroblasts (FIG. 1A). In the presence of Hesperadin, the HSC cells increased in size 2-3 folds (FIGS. 1B and C). The effect of Hesperadin on HSC growth was examined. […] The cell-cycle progression of HSCs is further analyzed in the presence of 0.625 μM Hesperadin using Flow Cytometry. […] Human Hepatic Stellate cells (LX-2 cell line) (HSCs) were obtained from the Key Lab of Regenerative Medicine, Jinan University, Guangzhou, China, which were maintained in Dulbecco's Modified Eagle Medium (DMEM)+10% fetal calf serum and penicillin-streptomycin (100 unit/ml and 0.1 mg/ml, respectively), in 5% CO2 at 37° C. inside a humidified cell incubator. The culture medium was changed every three days. To test the effects of small molecule Hesperadin on the mouse and human HSCs, the cultures were treated with 0.625 μM of Hesperadin for 48 hrs. The cultures were then fixed in ice cold 70% ethanol and incubated in phosphate buffered saline with RNase (0.25 mg/ml), Propidium iodide dye (40 μg/ml) and 0.1% Triton X for an hour at room temperature. […] The proliferation of HSCs was also evaluated by the MTT staining assay with 3-(4,5-Dimethylthiazol-2-yl)-2,5-diphenyltetrazolium bromide). […] The absorbance (at 570 nm) was measured using a BIORAD 3550 Microplate Reader. […]

collagen type IV = test: Immunofluorescent staining of HSC cultures, collagen type IV; type: cell-based, human; details: 0.625 μM, 24-48 hours
Method: Human Hepatic Stellate cells (LX-2 cell line) (HSCs) were obtained from the Key Lab of Regenerative Medicine, Jinan University, Guangzhou, China, which were maintained in Dulbecco's Modified Eagle Medium (DMEM)+10% fetal calf serum and penicillin-streptomycin (100 unit/ml and 0.1 mg/ml, respectively), in 5% CO2 at 37° C. inside a humidified cell incubator. The culture medium was changed every three days. To test the effects of small molecule Hesperadin on the mouse and human HSCs, the cultures were treated with 0.625 μM of Hesperadin for 48 hrs. The cultures were then fixed in ice cold 70% ethanol and incubated in phosphate buffered saline with RNase (0.25 mg/ml), Propidium iodide dye (40 μg/ml) and 0.1% Triton X for an hour at room temperature. For cell cycle analysis, the Propidium iodide stained cells were examined using a flow cytometer (“BD LSRFortessa Cell Analyzer”). The proliferation of HSCs was also evaluated by the MTT staining assay with 3-(4,5-Dimethylthiazol-2-yl)-2,5-diphenyltetrazolium bromide). […] The absorbance (at 570 nm) was measured using a BIORAD 3550 Microplate Reader. […] After washing, the sections were viewed and recorded using a FluoView FV1000 Confocal microscope and/or a Nikon i80 microscope respectively to identify the presence of HSC expressing collagens. The positive staining of Collagen types I, III and IV was analyzed with the Metamorph software.

CCS(=O)(=O)Nc1ccc2c(c1)/C(=C(/Nc1ccc(CN3CCCCC3)cc1)c1ccccc1)C(=O)N2 [Hesperadin, (Z)—N-(2-oxo-3-(Phenyl(4-(piperidin-1-ylmethyl)phenylamino)methylene)indolin-5-yl)ethanesulfonamide]
increase in HSC cell size (human HSC's (LX-2); 0.625 or 1.25 μM, 48 hrs): 2-3 folds
increase in HSC size (FIG. 1) (human HSC's (LX-2); 0.65 and 1.25 μM, 24 hours): several folds
collagen type IV expression (immunofluorescence) (collagen type IV): significantly inhibited; also recorded: inhibits the synthesis of collagen type IV
